Data reported in patent publication US8481539B2, “Alkynylaryl compounds and salts thereof, pharmaceutical compositions comprising same, methods of preparing same and uses of same” (Bayer Intellectual Property GmbH, priority 2007, dated 2013).

Experiments:
Tie-2 = molecular target: T1, Tie-2 (Homo sapiens, UniProt Q02763); assay: Tie-2-Kinase HTRF-Assay (assay 2); type: biochemical; settings: pIC50 class; 10 μM ATP; read-out: Enzymatic Tie 2 activity (assay 2)
T1 construct: fusion protein of GST and the intracellular domains of Tie-2; GST; made in house; host or cells: insect cells (Hi-5)
T1 sequence (Q02763 770-1124 limits assumed, species assumed): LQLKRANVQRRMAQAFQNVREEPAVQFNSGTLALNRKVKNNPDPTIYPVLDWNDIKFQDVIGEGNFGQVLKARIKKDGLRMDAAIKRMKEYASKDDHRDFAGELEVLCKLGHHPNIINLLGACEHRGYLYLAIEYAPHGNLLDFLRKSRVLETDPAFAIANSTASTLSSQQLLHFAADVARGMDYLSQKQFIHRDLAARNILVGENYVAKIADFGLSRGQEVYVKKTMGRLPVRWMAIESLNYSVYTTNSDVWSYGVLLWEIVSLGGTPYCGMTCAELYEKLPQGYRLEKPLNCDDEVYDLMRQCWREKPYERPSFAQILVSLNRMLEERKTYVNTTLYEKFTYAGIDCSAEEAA
Text: Tie2-inhibitory activity of compounds of the present invention was quantified employing two Tie2 HTRF assay as described in the following paragraphs.
A recombinant fusion protein of GST and the intracellular domains of Tie-2, expressed in insect cells (Hi-5) and purified by Glutathion-Sepharose affinity chromatography was used as kinase. Alternatively, commercially available GST-Tie2-fusion protein (Upstate Biotechnology, Dundee, Scotland) can be used As substrate for the kinase reaction the biotinylated peptide biotin-Ahx-EPKDDAYPLYSDFG (C-terminus in amid form) was used which can be purchased e.g. from the company Biosynthan GmbH (Berlin-Buch, Germany). Detection of phosphorylated product is achieved specifically by a trimeric detection complex consisting of the phosphorylated substrate, streptavidin-XLent (SA-XLent) which binds to biotin, and Europium Cryptate-labeled anti-phosphotyrosine antibody PT66 which binds to phosphorylated tyrosine.
Tie-2 (3.5 ng/measurement point) was incubated for 60 min at 22° C. in the presence of 10 μM adenosine-tri-phosphate (ATP) and 1 μM substrate peptide (biotin-Ahx-EPKDDAYPLYSDFG-NH2) with different concentrations of test compounds (0 μM and concentrations in the range 0.001-20 μM) in 5 μl assay buffer [50 mM Hepes/NaOH pH 7, 10 mM MgCl2, 0.5 mM MnCl2, 1.0 mM dithiothreitol, 0.01% NP40, protease inhibitor mixture (“Complete w/o EDTA” from Roche, 1 tablet per 2.5 ml), 1% (v/v) dimethylsulfoxide]. The reaction was stopped by the addition of 5 μl of an aqueous buffer (25 mM Hepes/NaOH pH 7.5, 0.28% (w/v) bovine serum albumin) containing EDTA (90 mM) and the HTRF (Homogeneous Time Resolved Fluorescence) detection reagents streptavidine-XLent (0.2 μM, from Cis Biointemational, Marcoule, France) and PT66-Eu-Chelate (0.3 ng/μl; a europium-chelate labelled anti-phospho-tyrosine antibody from Perkin Elmer).
(§1) The resulting mixture was incubated 1 h at 22° C. to allow the binding of the biotinylated phosphorylated peptide to the streptavidine-XLent and the PT66-Eu-Chelate. Subsequently the amount of phosphorylated substrate peptide was evaluated by measurement of the resonance energy transfer from the PT66-Eu-Chelate to the streptavidine-XLent. Therefore, the fluorescence emissions at 620 nm and 665 nm after excitation at 350 nm was measured in a HTRF reader, e.g. a Rubystar (BMG Labtechnologies, Offenburg, Germany) or a Viewlux (Perkin-Elmer). The ratio of the emissions at 665 nm and at […] was taken as the measure for the amount of phosphorylated substrate peptide. The data were normalised (enzyme reaction without inhibitor=0 (% inhibition, all other assay components but no enzyme=100% inhibition) and IC50 values were calculated by a 4 parameter fit using an inhouse software.

human PDGFRβ = molecular target: T2, human PDGFRβ (Homo sapiens, UniProt P09619); assay: PDGFRβ HTRF Assay (assay 6); type: biochemical; settings: pIC50 class; 10 μM ATP; read-out: Enzymatic PDGFRβ activity (assay 6)
T2 construct: C-terminal fragment of human PDGFRβ (amino acids 561-1106); GST; His; purchased Proqinase [Freiburg i.Brsg., Germany]; host or cells: insect cells [SF9]
T2 sequence (P09619 561-1106): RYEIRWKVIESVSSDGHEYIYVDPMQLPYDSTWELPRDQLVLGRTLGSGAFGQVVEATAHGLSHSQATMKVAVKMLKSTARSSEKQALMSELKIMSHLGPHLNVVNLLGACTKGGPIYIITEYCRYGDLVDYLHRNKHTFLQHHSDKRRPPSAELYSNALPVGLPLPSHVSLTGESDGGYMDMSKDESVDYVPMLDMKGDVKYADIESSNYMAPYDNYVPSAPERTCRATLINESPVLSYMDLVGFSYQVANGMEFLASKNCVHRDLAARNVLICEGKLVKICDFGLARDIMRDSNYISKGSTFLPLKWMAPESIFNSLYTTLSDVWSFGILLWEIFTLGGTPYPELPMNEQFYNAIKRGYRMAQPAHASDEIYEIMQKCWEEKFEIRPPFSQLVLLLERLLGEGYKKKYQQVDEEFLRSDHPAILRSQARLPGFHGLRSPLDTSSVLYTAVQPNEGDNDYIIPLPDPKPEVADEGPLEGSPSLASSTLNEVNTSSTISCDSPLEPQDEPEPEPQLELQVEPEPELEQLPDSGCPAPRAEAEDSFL
Text: Assay 6: PDGFRβ HTRF Assay
PDGFRβ inhibitory activity of compounds of the present invention was quantified employing the PDGFRβ HTRF assay as described in the following paragraphs.
As kinase, a GST-His fusion protein containing a C-terminal fragment of human PDGFRβ (amino acids 561-1106, expressed in insect cells [SF9] and purified by affinity chromatography, purchased from Proqinase [Freiburg i.Brsg., Germany] was used. As substrate for the kinase reaction the biotinylated poly-Glu, Tyr (4:1) copolymer (#61GT0BLA) from Cis Biointernational (Marcoule, France) was used.
For the assay 50 nl of a 100 fold concentrated solution of the test compound in DMSO was pipetted into a black low volume 384 well microtiter plate (Greiner Bio-One, Frickenhausen, Germany), 2 μl of a solution of PDGFRβ in aqueous assay buffer [50 mM HEPES/NaOH pH 7.5, 10 mM MgCl2, 2.5 mM dithiothreitol, 0.01% (v/v) Triton-X100 (Sigma)] were added and the mixture was incubated for 15 min at 22° C. to allow pre-binding of the test compounds to the enzyme before the start of the kinase reaction. Then the kinase reaction was started by the addition of 3 μl of a solution of adenosine-tri-phosphate (ATP, 16.7 μM=>final conc. in the 5 μl assay volume is 10 μM) and substrate (2.27 μg/ml=>final conc. in the 5 μl assay volume is 1.36 μg/ml [˜30 nM]) in assay buffer and the resulting mixture was incubated for a reaction time of 25 min at 22° C. The concentration of PDGFRβ in the assay was adjusted depending of the activity of the enzyme lot and was chosen appropriate to have the assay in the linear range, typical enzyme concentrations were in the range of about 125 pg/μl (final conc. in the 5 μl assay volume). The reaction was stopped by the addition of 5 μl of a solution of HTRF detection reagents (200 nM streptavidine-XLent [Cis Biointernational] and 1.4 nM PT66-Eu-Chelate, an europium-chelate labelled anti-phospho-tyrosine antibody from Perkin Elmer) in an aqueous EDTA-solution (100 mM EDTA, 0.2% (w/v) bovine serum albumin in 50 mM HEPES/NaOH pH 7.5).
as §1, with “substrate” for “substrate peptide”, “substrate. […]” for “substrate peptide. The data were normalised (enzyme reaction without inhibitor=0 (% inhibition, all other assay components but no enzyme=100% inhibition) and IC50 values were calculated by a 4 parameter fit using an inhouse software.”

| SMILES | IC50 (Tie-2) [nM] | IC50 (human PDGFRβ) [nM] |
| --- | --- | --- |
| Cn1ncc2c(C#Cc3cc(NC(=O)c4cccc(C(F)(F)F)c4)ccc3F)cncc21 [Example 1.9, N-[4-Fluoro-3-(1-methyl-1H-pyrazolo[3,4-c]pyridin-4-ylethynyl)-phenyl]-3-trifluoromethyl-benzamide] | < 1000 |  |
| Cc1ccc(NC(=O)c2cccc(C(F)(F)F)c2)cc1C#Cc1cncc2c1cnn2C [Example 1.6, N-[4-Methyl-3-(1-methyl-1H-pyrazolo[3,4-c]pyridin-4-ylethynyl)-phenyl]-3-trifluoromethyl-benzamide] | < 1000 | < 1000 |
| Cn1ncc2c(C#Cc3cccc(NC(=O)c4cccc(C(F)(F)F)c4)c3)cncc21 [Example 1.5, N-[3-(1-Methyl-1H-pyrazolo[3,4-c]pyridin-4-ylethynyl)-phenyl]-3-trifluoromethyl-benzamide] | < 1000 | < 1000 |
| Cn1ncc2c(C#Cc3cccc(NC(=O)Nc4ccccc4)c3)cncc21 [Example 2.1, 1-[3-(1-Methyl-1H-pyrazolo[3,4-c]pyridin-4-ylethynyl)-phenyl]-3-phenyl-urea] | < 1000 | < 1000 |
| Cc1ccc(NC(=O)Nc2cccc(C(F)(F)F)c2)cc1C#Cc1cncc2c1cnn2C [Example 2.4, 1-[4-Methyl-3-(1-methyl-1H-pyrazolo[3,4-c]pyridin-4-ylethynyl)-phenyl]-3-(3-trifluoromethyl-phenyl)-urea] | < 1000 | < 1000 |
